Reference: BindingDB's records for doi:10.1016/j.bmc.2015.01.060 (University of Florida, 2015)

Tests used:
[1] = molecular target: 5-hydroxytryptamine receptor 2B (Homo sapiens, UniProt P41595); assay: Displacement of [3H]Mesulergine from human 5-HT2B receptor expressed in HEK293 cells by scintillation counting analysis
[2] = molecular target: T1, 5-hydroxytryptamine receptor 2C (Homo sapiens, UniProt P28335); assay: Displacement of [3H]Mesulergine from human 5-HT2C-INI receptor expressed in HEK293 cells by scintillation counting analysis
T1 sequence (P28335 whole entry): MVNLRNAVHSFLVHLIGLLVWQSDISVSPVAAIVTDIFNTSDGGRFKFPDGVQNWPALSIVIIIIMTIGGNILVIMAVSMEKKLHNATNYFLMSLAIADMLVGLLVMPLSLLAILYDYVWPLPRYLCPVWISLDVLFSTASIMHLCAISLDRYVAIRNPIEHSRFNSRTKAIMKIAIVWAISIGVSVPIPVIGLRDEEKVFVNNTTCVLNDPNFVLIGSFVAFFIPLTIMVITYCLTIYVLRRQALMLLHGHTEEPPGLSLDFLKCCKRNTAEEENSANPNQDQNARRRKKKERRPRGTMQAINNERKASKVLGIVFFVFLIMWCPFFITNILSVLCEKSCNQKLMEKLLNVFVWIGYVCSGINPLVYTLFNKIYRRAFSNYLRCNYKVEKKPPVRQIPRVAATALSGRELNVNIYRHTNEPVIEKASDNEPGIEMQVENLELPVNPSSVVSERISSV

5-hydroxytryptamine receptor 2B, sequence (P41595 whole entry): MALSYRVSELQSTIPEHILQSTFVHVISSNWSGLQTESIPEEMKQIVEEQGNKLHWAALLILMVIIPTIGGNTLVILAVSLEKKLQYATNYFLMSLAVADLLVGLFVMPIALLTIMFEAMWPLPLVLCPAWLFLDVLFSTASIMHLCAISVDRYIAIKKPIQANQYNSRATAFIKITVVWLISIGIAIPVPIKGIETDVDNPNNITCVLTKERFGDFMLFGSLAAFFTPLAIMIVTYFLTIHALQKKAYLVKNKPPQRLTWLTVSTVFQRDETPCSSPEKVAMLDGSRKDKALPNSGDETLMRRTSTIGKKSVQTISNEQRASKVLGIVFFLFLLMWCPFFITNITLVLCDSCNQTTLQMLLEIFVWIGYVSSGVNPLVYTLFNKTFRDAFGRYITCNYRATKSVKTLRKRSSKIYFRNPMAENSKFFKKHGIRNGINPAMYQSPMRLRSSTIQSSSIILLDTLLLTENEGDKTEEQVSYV

## CN(C)[C@H]1Cc2ccccc2[C@H](c2ccc([N+](=O)[O-])cc2)C1
[1]
  Ki: 4100 nM
[2]
  Ki: 1000 nM
